Results on 4 molecules are retold here after paper PMC5748856 (The Journal of Experimental Medicine, 2018).

One assay deals with purified HLA-A*02:01 (Homo sapiens, UniProt P04439, D140Y/D185E/D98H/E176V/E277Q/G131W/G231S/I119V/I121R/I166T/I218V/L300P/L318F/N151K/N90K/P208A/P217A/Q86G/Q94H/R138H/R169H/T345S). The following applies: for HLA-A*02:01 binding (in words): relative to H3.3K27M, cell-free binding assay, performed once (Fig. 4 A).
The next assay has as its target HLA-A*02:03 (human). Briefly: radioligand binding.

“Also recorded” adds a separate entry of the source. Ends that are not written are not given here. Bounds are passed on as bounds.

As usually defined, the IC50 is the concentration that inhibits the measured activity by half. A low value points to greater potency.

In the case of RKSAPSTGGV [H3.3WT, reference compound], the IC50 against purified HLA-A*02:01 was above 38700 nM.
For RMSAPATGGV [A6], the “HLA-A*02:01 binding (in words)” value on purified HLA-A*02:01 is “abrogated; also recorded: diminished”.
Still for that read-out and setting: in the case of XMSAPSTGGV [Cit H3.3] it was “partially retains its affinity”.
Turning to RMSAPSTGGV [H3.3K27M_(26–35) peptide], the IC50 in the assay with HLA-A*02:03 (human) came out at 747 nM.
